In article PMC8137473, “Preclinical trial of a MAP4K4 inhibitor to reduce infarct size in the pig: does cardioprotection in human stem cell-derived myocytes predict success in large mammals?” (Basic Research in Cardiology, 2021):

Experiments:
porcine model of MI = test: efficacy study: hemodynamics and LV function; format: in vivo, swine; details: for 2-D ejection fraction / LV end-diastolic lumen surface / LV end-diastolic wall thickness (infarct region) / LV end-systolic lumen surface / LV end-systolic wall thickness (infarct region) / Systolic Wall thickening (infarct region): echocardiography; for DAP / HR / MAP / SAP: fluid-filled catheter
Experimental: Next, an efficacy study was performed, in adherence to published guidelines for rigor and reproducibility, to evaluate the postulated benefit of DMX-10001 in a large-mammal model of MI. Briefly, 36 closed-chest swine (41 ± 2 kg) were subjected to regional ischemia by occluding the left anterior descending coronary artery (LAD) distal to the first diagonal branch for 60 min, followed by 24 h of reperfusion. Treatment with DMX-10001 (60 mg/kg/h for 0.5 h, followed by 17 mg/kg/h for 23.5 h) versus the vehicle was initiated 20 min prior to reperfusion and continued for 1 day. After 2 h of reperfusion, animals were allowed to recover from anesthesia. At 24 h of reperfusion, the infarct area (IA), area of no-reflow (NR), and area at ischemic risk (AAR) were determined. Transthoracic short-axis B-mode echocardiograms and measurements of LV pressure and its first derivative (LVdP/dt) were obtained at baseline and at 24 h of reperfusion. LV pressure–volume measurements were obtained at 24 h of reperfusion. Heart-type fatty acid binding protein (hFABP) release was measured, as a biomarker that correlates with IS and NR in swine at least as well as cardiac troponin I [30].
A transthoracic short-axis B-mode echocardiogram (ZS3, Zonare Medical Systems, Mountain View, CA) was performed to determine LV contractile performance. LV pressure and its first derivative (LVdP/dt) were determined using a micro-manometer-tipped catheter (SPR-350S, Millar Inc., Houston, TX), before infarct induction and again before killing. Terminal LV pressure–volume measurements were also performed, using a 7F conductance catheter (CD Leycom, Hengelo, The Netherlands) advanced into the LV [32]. After calibration of the system, pressure–volume loops were recorded during a breath hold.
Hemodynamic and LV global function were recorded and digitized online using a three-channel data acquisition program (ATCODAS, Dataq Instruments Inc., Akron OH) and stored on a computer for off-line analysis with a program written in MATLAB (Mathworks Inc., Natick, MA). A minimum of 10 s was selected for analysis of the digitized hemodynamic signals. Pressure–volume-related data were recorded and stored on a computer for off-line analysis (CD Leycom, Hengelo, The Netherlands). Statistical significance (P < 0.05, two tailed) for changes was determined by two-way ANOVA (time point in protocol x treatment) for repeated measures, followed by post hoc testing with the Bonferonni multiple comparison test.

MAP4K4 = MAP4K4 (Homo sapiens, UniProt O95819); test: cell-free biochemical assay, MAP4K4 inhibition
Sequence of MAP4K4 (O95819 whole entry, species assumed, the tested form may be a part): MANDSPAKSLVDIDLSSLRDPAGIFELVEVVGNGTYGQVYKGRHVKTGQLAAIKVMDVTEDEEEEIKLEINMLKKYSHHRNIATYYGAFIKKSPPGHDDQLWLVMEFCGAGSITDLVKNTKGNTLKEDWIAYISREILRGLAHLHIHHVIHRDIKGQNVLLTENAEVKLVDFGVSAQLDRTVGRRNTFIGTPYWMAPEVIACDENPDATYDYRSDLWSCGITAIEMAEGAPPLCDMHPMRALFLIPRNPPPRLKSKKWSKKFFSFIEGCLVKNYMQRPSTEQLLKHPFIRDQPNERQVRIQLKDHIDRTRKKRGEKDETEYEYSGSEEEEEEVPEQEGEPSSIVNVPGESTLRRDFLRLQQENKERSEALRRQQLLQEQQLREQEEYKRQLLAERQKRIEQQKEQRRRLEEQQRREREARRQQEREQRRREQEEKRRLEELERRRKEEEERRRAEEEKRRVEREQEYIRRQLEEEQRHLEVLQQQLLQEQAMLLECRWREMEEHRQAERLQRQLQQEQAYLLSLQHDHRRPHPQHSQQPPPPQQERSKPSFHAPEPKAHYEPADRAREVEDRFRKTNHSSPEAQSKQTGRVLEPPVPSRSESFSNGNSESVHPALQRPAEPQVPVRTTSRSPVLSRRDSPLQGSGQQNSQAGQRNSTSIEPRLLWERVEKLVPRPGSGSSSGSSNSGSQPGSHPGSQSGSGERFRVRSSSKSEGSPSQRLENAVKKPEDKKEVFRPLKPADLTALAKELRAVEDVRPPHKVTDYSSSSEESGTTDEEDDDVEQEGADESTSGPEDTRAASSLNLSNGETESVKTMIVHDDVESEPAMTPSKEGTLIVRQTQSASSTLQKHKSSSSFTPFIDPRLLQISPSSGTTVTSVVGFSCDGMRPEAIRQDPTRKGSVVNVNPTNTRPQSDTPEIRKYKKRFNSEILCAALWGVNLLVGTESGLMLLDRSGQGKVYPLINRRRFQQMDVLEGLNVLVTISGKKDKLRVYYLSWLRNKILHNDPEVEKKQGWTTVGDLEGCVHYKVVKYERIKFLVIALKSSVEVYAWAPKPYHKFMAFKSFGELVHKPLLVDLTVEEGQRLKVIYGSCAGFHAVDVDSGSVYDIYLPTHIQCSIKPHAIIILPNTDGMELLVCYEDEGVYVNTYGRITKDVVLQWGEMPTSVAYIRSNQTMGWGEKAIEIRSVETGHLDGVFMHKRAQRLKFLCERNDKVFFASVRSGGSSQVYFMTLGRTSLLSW
From the text: DMX-10001, a rapidly hydrolyzed phosphate pro-drug of DMX-5804, was produced by Domainex Ltd, by a modification of the latter’s synthetic route, attaching a hydrolysable phosphate group via a linker to the core of DMX-5804 (Fig. 1a). This removes a key hydrogen bonding group and prevents DMX-10001 from binding to the hinge region of the MAP4K4 kinase domain. […] Furthermore, this modest value is likely driven by minute levels of DMX-5804 either present in the sample or generated during by hydrolysis during the assay.

[1] = Millar catheter, Day 1 Baseline
[2] = Millar catheter, Day 2 End of Reperfusion
[3] = conductance catheter, End of Reperfusion
[4] = Coronary artery occlusion 15 min
[5] = Coronary artery occlusion 40 min
[6] = Coronary artery occlusion 60 min

Q: Which “LV dP/dtmax” value (porcine model of MI; [1]) does the source give for COCCOc1ccc(-c2cn(-c3ccccc3)c3ncn(COP(=O)(O)O)c(=O)c23)cc1 [DMX-10001] here?
A: 1830 mmHg/s

Q: What about the “LV dP/dtmin” value (porcine model of MI; [1]) of the same compound?
A: -2080 mmHg/s

Q: And the “LV dPdtP40” value (porcine model of MI; [1])?
A: 1640 mmHg/s

Q: And the LV end-diastolic pressure (porcine model of MI; [1])?
A: 8 mmHg

Q: What about the “LV peak systolic pressure” value (porcine model of MI; [1]) of the same compound?
A: 102 mmHg

Q: And the tau (porcine model of MI; [1])?
A: 34 ms

Q: What about the “LV dP/dtmax” value (porcine model of MI; [2]) of the same compound?
A: 920 mmHg/s

Q: What about the “LV dP/dtmin” value (porcine model of MI; [2]) of the same compound?
A: -1240 mmHg/s

Q: What about the “LV dPdtP40” value (porcine model of MI; [2]) of the same compound?
A: 800 mmHg/s

Q: What about the LV end-diastolic pressure (porcine model of MI; [2]) of the same compound?
A: 13 mmHg

Q: And the “LV peak systolic pressure” value (porcine model of MI; [2])?
A: 78 mmHg

Q: What about the tau (porcine model of MI; [2]) of the same compound?
A: 44 ms

Q: And the 3-D ejection fraction (porcine model of MI; [3])?
A: 34%

Q: What about the Cardiac output (porcine model of MI; [3]) of the same compound?
A: 4.7 L/min

Q: And the Heart rate (porcine model of MI; [3])?
A: 109 beats/min

Q: And the LV end-diastolic pressure (porcine model of MI; [3])?
A: 10 mmHg

Q: What about the LV end-diastolic volume (porcine model of MI; [3]) of the same compound?
A: 138 mL

Q: What about the LV end-systolic volume (porcine model of MI; [3]) of the same compound?
A: 96 mL

Q: What about the LV peak-systolic pressure (porcine model of MI; [3]) of the same compound?
A: 73 mmHg

Q: And the Stroke volume (porcine model of MI; [3])?
A: 45 mL/beat

Q: And the tau (porcine model of MI; [3])?
A: 28 ms

Q: And the 2-D ejection fraction (porcine model of MI; Day 1 Baseline)?
A: 44%

Q: And the “LV end-diastolic lumen surface” value (porcine model of MI; Day 1 Baseline)?
A: 1843 mm^2

Q: What about the “LV end-diastolic wall thickness (infarct region)” value (porcine model of MI; Day 1 Baseline) of the same compound?
A: 7.4 mm

Q: What about the “LV end-systolic lumen surface” value (porcine model of MI; Day 1 Baseline) of the same compound?
A: 1034 mm^2

Q: And the “LV end-systolic wall thickness (infarct region)” value (porcine model of MI; Day 1 Baseline)?
A: 10.7 mm

Q: What about the “Systolic Wall thickening (infarct region)” value (porcine model of MI; Day 1 Baseline) of the same compound?
A: 49%

Q: What about the 2-D ejection fraction (porcine model of MI; Day 2 End of Reperfusion) of the same compound?
A: 25%

Q: What about the “LV end-diastolic lumen surface” value (porcine model of MI; Day 2 End of Reperfusion) of the same compound?
A: 1916 mm^2

Q: And the “LV end-diastolic wall thickness (infarct region)” value (porcine model of MI; Day 2 End of Reperfusion)?
A: 8.5 mm

Q: And the “LV end-systolic lumen surface” value (porcine model of MI; Day 2 End of Reperfusion)?
A: 1435 mm^2

Q: And the “LV end-systolic wall thickness (infarct region)” value (porcine model of MI; Day 2 End of Reperfusion)?
A: 8.7 mm

Q: And the “Systolic Wall thickening (infarct region)” value (porcine model of MI; Day 2 End of Reperfusion)?
A: 3%

Q: What about the “effect on hemodynamic and LV functional end-points after ischemia–reperfusion” value (porcine model of MI; efficacy study) of the same compound?
A: neither worsened nor enhanced

Q: And the DAP (porcine model of MI; Baseline)?
A: 75 ± 15 mmHg

Q: What about the HR (porcine model of MI; Baseline) of the same compound?
A: 124 ± 33 bpm

Q: And the MAP (porcine model of MI; Baseline)?
A: 89 ± 16 mmHg

Q: And the SAP (porcine model of MI; Baseline)?
A: 107 ± 14 mmHg

Q: And the DAP (porcine model of MI; [4])?
A: 76 ± 28 mmHg

Q: And the HR (porcine model of MI; [4])?
A: 89 ± 40 bpm

Q: And the MAP (porcine model of MI; [4])?
A: 91 ± 30 mmHg

Q: And the SAP (porcine model of MI; [4])?
A: 110 ± 34 mmHg

Q: What about the DAP (porcine model of MI; [5]) of the same compound?
A: 58 ± 16 mmHg

Q: And the HR (porcine model of MI; [5])?
A: 78 ± 31 bpm

Q: What about the MAP (porcine model of MI; [5]) of the same compound?
A: 71 ± 17 mmHg

Q: What about the SAP (porcine model of MI; [5]) of the same compound?
A: 88 ± 18 mmHg

Q: And the DAP (porcine model of MI; [6])?
A: 52 ± 10 mmHg

Q: And the HR (porcine model of MI; [6])?
A: 71 ± 21 bpm

Q: And the MAP (porcine model of MI; [6])?
A: 65 ± 11 mmHg

Q: And the SAP (porcine model of MI; [6])?
A: 82 ± 13 mmHg

Q: What about the DAP (porcine model of MI; Reperfusion (day 1) 10 min) of the same compound?
A: 61 ± 13 mmHg

Q: And the HR (porcine model of MI; Reperfusion (day 1) 10 min)?
A: 99 ± 22 bpm

Q: What about the MAP (porcine model of MI; Reperfusion (day 1) 10 min) of the same compound?
A: 74 ± 13 mmHg

Q: What about the SAP (porcine model of MI; Reperfusion (day 1) 10 min) of the same compound?
A: 91 ± 13 mmHg

Q: And the DAP (porcine model of MI; Reperfusion (day 1) 30 min)?
A: 63 ± 11 mmHg

Q: What about the HR (porcine model of MI; Reperfusion (day 1) 30 min) of the same compound?
A: 120 ± 31 bpm

Q: What about the MAP (porcine model of MI; Reperfusion (day 1) 30 min) of the same compound?
A: 73 ± 11 mmHg

Q: What about the SAP (porcine model of MI; Reperfusion (day 1) 30 min) of the same compound?
A: 88 ± 11 mmHg

Q: And the DAP (porcine model of MI; Reperfusion (day 1) 120 min)?
A: 62 ± 9 mmHg

Q: And the HR (porcine model of MI; Reperfusion (day 1) 120 min)?
A: 94 ± 26 bpm

Q: What about the MAP (porcine model of MI; Reperfusion (day 1) 120 min) of the same compound?
A: 73 ± 9 mmHg

Q: What about the SAP (porcine model of MI; Reperfusion (day 1) 120 min) of the same compound?
A: 87 ± 10 mmHg

Q: And the DAP (porcine model of MI; Reperfusion (day 2) 22h 40 min)?
A: 56 ± 13 mmHg

Q: What about the HR (porcine model of MI; Reperfusion (day 2) 22h 40 min) of the same compound?
A: 112 ± 24 bpm

Q: What about the MAP (porcine model of MI; Reperfusion (day 2) 22h 40 min) of the same compound?
A: 67 ± 13 mmHg

Q: What about the SAP (porcine model of MI; Reperfusion (day 2) 22h 40 min) of the same compound?
A: 80 ± 13 mmHg

Q: And the DAP (porcine model of MI; Reperfusion (day 2) 23h 40 min)?
A: 62 ± 17 mmHg

Q: And the HR (porcine model of MI; Reperfusion (day 2) 23h 40 min)?
A: 103 ± 14 bpm

Q: What about the MAP (porcine model of MI; Reperfusion (day 2) 23h 40 min) of the same compound?
A: 75 ± 18 mmHg

Q: What about the SAP (porcine model of MI; Reperfusion (day 2) 23h 40 min) of the same compound?
A: 91 ± 20 mmHg

Q: And the “difference in IC50 against MAP4K4, DMX-10001 vs DMX-5804” value (MAP4K4)?
A: > 750 fold

Q: What about the IC50 (MAP4K4; cell-free biochemical assays, read-out: IC50 against MAP4K4) of the same compound?
A: 2300 nM
